Data: patent US7148237B2, “Nitrogen-containing heteroaryl compounds having HIV integrase inhibitory activity” (Shionogi & Co., Ltd., priority 2001, dated 2006)

How the values were obtained:
integrase = integrase (Human immunodeficiency virus type 1 group M subtype B, UniProt P04585); test: Integrase inhibition assay (microtiter plate strand transfer, substrate DNA/target DNA, anti-digoxigenin ELISA readout); type: biochemical; settings: concentration of the compound at percent inhibition 50%; OD at 405 nm
Experimental: The inhibitory activities against integrase of the compounds in the present invention have been determined by the assay described below.
Substrate DNA and target DNA, which sequences were indicated below, were synthesized by Amersham Pharmacia Biotech and dissolved in KTE buffer (composition: 100 mM KCl, 1 mM EDTA, 10 mM Tris-HCl (pH 7.6)) at concentration of 2 pmol/μl and 5 pmol/μl, respectively. The DNA solutions were annealed with each complement by slowly cooling after heating.
Streptavidin, obtained from Vector Laboratories, was dissolved in 0.1 M carbonate buffer (composition: 90 mM Na2CO3, 10 mM NaHCO3) at concentration of 40 μg/ml. After coating each well of microtiter plates (obtained from NUNC) with 50 μl of the above solution at 4° C. over night, each well was washed twice with PBS (composition: […], 0.27 mM KCl, 0.43 mM Na2HPO4, 0.14 mM KH2PO4) and blocked with 300 μL of 1% skim milk in PBS for 30 min. Additionally, each well was washed twice with PBS and added 50 μl of substrate DNA solution (2 pmol/μl). The microtiter plates were kept at room temperature for 30 min. Then, each well was washed twice with PBS and once with H2O.
Subsequently, in the each well prepared above were added 45 μl of the reaction buffer prepared from 12 μl of the buffer (composition: 150 mM MOPS (pH 7.2), 75 mM MnCl2, 50 mM 2-mercaptoethanol, 25% glycerol, 500 μg/ml bovine serum albumin-fraction V), 1 μl of target DNA (5 pmol/μl), and 32 μl of the distilled water. Additionally, 6 μl of either a test compound in DMSO or DMSO for positive control (PC) was mixed with the above reaction buffer, then 9 μl of an integrase solution (30 pmol) was added and mixed well. In the well of negative control (NC) was added 9 μl of the integrase dilution buffer (composition: 20 mM MOPS (pH7.2), 400 mM potassium glutamate, 1 mM EDTA, 0.1% NP-40, 20% glycerol, 1 mM DTT, 4 M urea).
The microtiter plates were incubated at 30° C. for 1 hour. The reaction solution was removed and each well was washed twice with PBS. Subsequently, each well of the microtiter plates was filled with 100 μl of anti-digoxigenin antibody labeled with alkaline phosphatase (Sheep Fab fragment: obtained from Boehringer) and incubated at 30° C. for 1 hour. Then, each well was washed twice with 0.05% Tween20 in PBS and once with PBS. Next, 150 μl of the Alkaline phosphatase reaction buffer (composition: 10 mM p-Nitrophenylphosphate (obtained from Vector Laboratories), 5 mM MgCl2, 100 mM NaCl, 100 mM Tris-HCl (pH 9.5)) was added in each well. The microtiter plates were incubated at 30° C. for 2 hours and the reaction was terminated by the addition of 50 μl of 1 N NaOH solution. The optical density (OD) at 405 nm of each well was measured and the percent inhibition was determined by the following expression. The percent inhibition (%)=100[1−{(C abs.−NC abs.)/(PC abs.−NC abs.)}] • C abs.; the OD of the well of the • NC abs.: the OD of the negative control (NC) • PC abs.: the OD of the positive control (PC)
When the percent inhibition (%) is X % at the concentration of x μg/ml and the percent inhibition (%) is Y % at the concentration of y μg/ml, one of which is more than 50% and the other is less than 50%, IC50 can be determined by the following expression. IC50(μg/ml)=x−{(X−50)(x−y)/(X−Y)}

Row | Structure (SMILES) | melting point | IC50 (integrase) [nM]
1 | COC(=O)c1cc(Cl)c2[nH]c(Cc3ccc(F)cc3)nc2c1O [Compound I-1] | 257 to 260 °C | 1610
2 | O=C(c1ccc(Sc2ccc(F)cc2)o1)c1cc(Cl)c2cccnc2c1O [Compound I-63] | 120 to 122 °C | 1050
3 | O=C(c1ccc(Cc2ccc(F)cc2)o1)c1cc(Cl)c2cccnc2c1O | 126 to 128 °C | –
4 | Cc1nc2c(O)c(-c3nnc(Cc4ccccc4)o3)cc(Cl)c2[nH]1 [Compound I-35] | 255 to 257 °C | 704
5 | O=C(O)c1ccc2[nH]c(CCc3ccc(F)cc3)nc2c1O | 152 to 155 °C | –
6 | COC(=O)c1cc(Cl)c2c(nc(Cc3ccc(F)cc3)n2C)c1O [Compound I-6] | 198 to 201 °C | 1270
7 | COC(=O)c1cc(C(=O)Nc2ccccn2)c2cc(Cc3ccc(F)cc3)cnc2c1O | 190 to 194 °C | –
8 | O=C(O)c1cc(Cl)c2cc(Cc3ccc(F)cc3)cnc2c1O [Compound I-65] | 222 to 224 °C | 332
9 | O=C(c1cc(Cl)c2[nH]c(Cc3ccc(F)cc3)nc2c1O)N1CCCC1 [Compound I-20] | 268 to 272 °C (dec.) | 2030
10 | CCn1c(C)nc2c(O)c(-c3ncc(Cc4ccc(F)cc4)o3)ccc21 | 150 to 151 °C | –
11 | O=C(c1ccccc1)c1cc(C(=O)O)c2cc(Cc3ccc(F)cc3)cnc2c1O | 220 to 223 °C | –
12 | Cc1nc2c(O)c(-c3nnc(COc4ccccc4)o3)cc(Cl)c2[nH]1 [Compound I-37] | 266 to 268 °C | 1540
13 | O=C(c1nccs1)c1ccc2[nH]c(Cc3ccc(F)cc3)nc2c1O [Compound I-27] | 239 to 240 °C | 538
14 | CCOC(=O)c1cc(CC)c2cc(Cc3ccc(F)cc3)cnc2c1O | 78 to 80 °C | –
